How the values were obtained:
KPC pancreatic cancer = KPC pancreatic cancer model (tumor volumes, tumor tissue immune cells); assay type: in vivo; conditions: tumor tissues
CD8+ T cell = experiment: IFN-γ level measurements for CD8+ T cell function; assay type: cell-based; conditions: relative to vehicle
Source text: FIG. 39 illustrates the results of IFN-γ level measurements for CD8^+ T cell function.

[1] = tested on: 80 known pharmacologic targets (G-protein-coupled receptors, nuclear receptors, proteases, ion channels); experiment: Binding assays on 80 known pharmacologic targets at 10 μM; conditions: screened at 10 μM
Source text: (§1) Formula (2) was well tolerated in standard in vivo Good Laboratory Practices (GLP) studies of pharmacologic safety.

[2] = tested on: EGFR phosphorylation (p-EGFR Y1069) in A431 cells; experiment: EGF-induced EGFR phosphorylation in A431 cells (phosphoflow); assay type: cell-based, human
Procedure: Phosphoflow cytometry was performed with p-EGFR (Y1069). MFI values were normalized so that 100% represents the p-EGFR level in stimulated cells without inhibitor, while 0% represents the unstimulated/no drug condition.

[3] = Cardiovascular function study in awake telemeterized dogs; assay type: in vivo; conditions: male beagle dogs, single doses through 30 mg/kg
Source text: as §1

[4] = In vitro metabolism in hepatocytes with 14C-labeled drug; assay type: in vitro ADME, and human; conditions: mouse, rat, dog, rabbit, monkey, human hepatocytes
[5] = Preliminary evaluation of metabolism in plasma, bile and urine; assay type: in vivo; conditions: rats, dogs, monkeys
CYP enzymes = experiment: Nonclinical CYP interaction studies; assay type: in vitro ADME
ID8 ovarian cancer = experiment: ID8 syngeneic orthotopic ovarian cancer murine model; assay type: in vivo, mice; conditions: 15 mg/kg/BID orally
Source text: […] ovarian cancer models, including the ID8 syngeneic orthotopic ovarian cancer model and other animal models, are described in Fong and Kakar, J. Ovarian Res. 2009, 2, 12; Greenaway, et al., Gynecol. Oncol. 2008, 108, 385-94; Urzua, et al., Tumour Biol. 2005, 26, 236-44; Janat-Amsbury, et al., Anticancer Res. 2006, 26, 3223-28; Janat-Amsbury, et al., Anticancer Res. 2006, 26, 2785-89. […] The results of the study are shown in FIG. 8, FIG. 9, FIG. 10, FIG. 11, FIG. 12, FIG. 13, FIG. 14, and FIG. 15.

BTK = molecular target: T1, BTK (Mus musculus, UniProt P35991); experiment: Molecular probe assay of BTK occupancy in MDSCs of tumor bearing PDA mice; assay type: in vivo; conditions: 15 mg/kg BID, Day 8, 4 hours post dose
T1 construct: endogenous in cells; host or cells: granulocytic and monocytic MDSCs from tumor-bearing PDA mice
T1 sequence (P35991 whole entry): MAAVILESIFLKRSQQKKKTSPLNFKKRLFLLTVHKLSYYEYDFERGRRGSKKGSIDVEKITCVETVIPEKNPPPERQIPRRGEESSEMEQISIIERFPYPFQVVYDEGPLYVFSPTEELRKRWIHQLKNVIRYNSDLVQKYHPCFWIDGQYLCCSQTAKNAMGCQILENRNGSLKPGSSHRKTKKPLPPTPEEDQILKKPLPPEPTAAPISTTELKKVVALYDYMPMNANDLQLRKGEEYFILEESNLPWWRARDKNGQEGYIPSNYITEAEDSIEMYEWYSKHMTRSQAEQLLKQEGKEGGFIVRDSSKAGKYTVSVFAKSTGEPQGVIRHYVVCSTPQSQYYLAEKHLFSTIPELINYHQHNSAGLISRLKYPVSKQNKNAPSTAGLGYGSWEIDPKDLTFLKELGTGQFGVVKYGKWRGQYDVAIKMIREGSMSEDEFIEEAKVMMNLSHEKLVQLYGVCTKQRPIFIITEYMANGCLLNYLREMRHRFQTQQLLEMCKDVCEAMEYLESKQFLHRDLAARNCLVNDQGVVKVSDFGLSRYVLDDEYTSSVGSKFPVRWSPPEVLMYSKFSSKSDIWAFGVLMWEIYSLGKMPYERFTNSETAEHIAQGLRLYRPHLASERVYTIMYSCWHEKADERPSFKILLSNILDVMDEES
Source text: A molecular probe assay was used to calculate the percent irreversible occupancy of total BTK.

[6] = tested on: NK cells co-cultured with antibody-coated DHL-4 or HER18 target cells; experiment: NK cell lytic granule release (CD107a) by flow cytometry; assay type: cell-based, human; conditions: 1 μM; HER18 targets, trastuzumab 10 μg/mL
Source text: Prior to assay, HER18 cells were harvested using trypsin-EDTA, washed with phosphate-buffered saline (PBS) containing 5% serum and viable cells were counted. For culture of primary target cells, peripheral blood from CLL patients was subject to density centrifugation to obtain peripheral blood mononuclear cells (PBMC). Cell preparations were washed and then subject to positive selection of CD5^+CD19^+ CLL cells using magnetic beads (MACS, Miltenyi Biotech). Cell preparations were used fresh after selection. NK cells from CLL patients and healthy volunteers were enriched from peripheral blood collected in sodium citrate anticoagulant tubes and then subject to density centrifugation. Removal of non NK cells was performed using negative selection by MACS separation. […]
Lytic granule release was determined as follows. […] Degranulation was evaluated via by flow cytometery by externalization of CD107a, a protein normally present on the inner leaflet of lytic granules, and gating on NK cells (CD3-CD16^+ lymphocytes). The percentage of CD107a positive NK cells was quantified by comparison with a negative control (isotype control, unstained cells/FMO). Control cultures (NK cells cultured without target cells, or NK, target cell co-cultures in the absence of appropriate monoclonal antibody) were also evaluated; all experiments were performed in triplicate.

[7] = tested on: NK cell lysis of Raji cells; experiment: Rituximab ADCC 51Cr release assay, Raji targets; assay type: cell-based, human; conditions: 1 μM; NK cells, E:T 25:1
Source text: Cell culture conditions were as follows. […] The HER18 cells were maintained in DEM supplemented with fetal bovine serum, penicillin-streptomycin and. Prior to assay, HER18 cells were harvested using trypsin-EDTA, washed with phosphate-buffered saline (PBS) containing 5% serum and viable cells were counted. For culture of primary target cells, peripheral blood from CLL patients was subject to density centrifugation to obtain peripheral blood mononuclear cells (PBMC). Cell preparations were washed and then subject to positive selection of CD5^+CD19^+ CLL cells using magnetic beads (MACS, Miltenyi Biotech). Cell preparations were used fresh after selection. NK cells from CLL patients and healthy volunteers were enriched from peripheral blood collected in sodium citrate anticoagulant tubes and then subject to density centrifugation. Removal of non NK cells was performed using negative selection by MACS separation. Freshly isolated NK cells were washed three times, enumerated, and then used immediately for ADCC assays.
ADCC assays were performed as follows. Briefly, target cells (Raji or primary CLL) were labeled by incubation at 37° C. with 100 μCi ^51Cr for 4 hours prior to co-culture with NK cells. Cells were washed, enumerated, and then added in triplicate to prepared 96-well plates containing treated NK cells at an effector:target (E:T) ratio of 25:1. […] Cultures were incubated at 37° C. for 4 hours, and then centrifuged. Supernatants were harvested and ^51Cr release was measured by liquid scintillation counting. All experiments were performed in triplicate.

CD8+ T cells = experiment: CD8+ T cell viability on anti-TCR/anti-CD28 coated wells; assay type: cell-based; conditions: 4 days, neutral culture conditions
Procedure: Total T cells were plated on anti-TCR and anti-CD28 coated wells in the presence of both BTK inhibitors. Neutral culture conditions were used that will not polarize T cells to a helper lineage. […] Statistical significance was calculated using the Mann Whitney T-test.

[8] = tested on: CD8+ T cell function (B lymphoblast targets); experiment: Cytotoxic T cell (CTL) assay; assay type: cell-based; conditions: CTL generated 4 days with 500 nM inhibitor
Procedure: Without being bound by any theory, CD8^+ T cells have two primary effector functions: (1) produce large amounts of IFN-γ (which activates macrophages), and (2) cytolytic activity. […] The targets were B lymphoblasts from lipopolysaccharide (LPS) treated cultures. The assay was performed by incubating different ratios of effectors:targets for 4 hours.

CLL = experiment: Clinical study of Formula (2) in CLL (ALC, SPD, PFS, immune cells, apoptosis, chemokines); conditions: CLL patients, relative to ibrutinib (Byrd et al. 2013)
Source text: Trendlines are shown for % change in MDSC (monocytic) level and % change in NK cell level.

For CC#CC(=O)N1CCC[C@H]1c1nc(-c2ccc(C(=O)Nc3ccccn3)cc2)c2c(N)nccn12 [Formula (2), (S)-4-(8-amino-3-(1-(but-2-ynoyl)pyrrolidin-2-yl)imidazo[1,5-a]pyrazin-1-yl)-N-(pyridin-2-yl)benzamide], the “immunosuppressive MDSCs (Gr1+Ly6CHi)” value (KPC pancreatic cancer) was “significantly reduced”, the “immunosuppressive TAMs (CD11b+Ly6ClowF4/80+Csf1r+)” value (KPC pancreatic cancer) was “significantly reduced” and the “immunosuppressive Tregs (CD4+CD25+FoxP3+)” value (KPC pancreatic cancer) was “significantly reduced”. The “CD8+ T cell function as IFN-γ level” value (CD8+ T cell) was “no effect on CD8^+ T cell function as measured by IFN-γ level relative to vehicle”, the “activity in binding assays on 80 known pharmacologic targets” value [1] was “significant activity only against the A3 adenosine receptor” and the “inhibition of in vitro EGFR phosphorylation” value ([2]; 10 μM, A431 human epidermoid cancer cell line) was “no inhibition”. The inhibition at 10 µM ([2]; Homo sapiens, A-431, A431 cells, 2 h, EGF 100 ng/mL 5 min) was 7%, the “body temperature, cardiovascular, ECG (including QT interval) parameters” value [3] was “no meaningful changes” and the metabolites in hepatocytes [4] was “two mono-oxidized metabolites and a glutathione conjugate”. For the same compound, the “metabolic processes in plasma, bile, and urine” value [5] was “oxidation, glutathione binding, and hydrolysis”, the “potential for clinical drug-drug interactions via CYP enzymes” value (CYP enzymes) was “very unlikely to cause clinical drug-drug interactions” and the “CD8+ T cells” value (ID8 ovarian cancer) was “increase”. The “immunosuppressive B cells, including Bregs” value (ID8 ovarian cancer; tumor-bearing mice) was “significant reduction”, the immunosuppressive tumor-associated lymphocytes (ID8 ovarian cancer; tumor-bearing mice) was “significant reduction” and the “irreversible BTK occupancy in granulocytic and monocytic MDSCs” value (BTK) was “Complete BTK occupancy”. The “inhibition of trastuzumab-stimulated NK cell degranulation” value [6] was “no inhibitory effect”, the “effect on rituximab-mediated ADCC, Raji cells” value [7] was “not inhibited” and the “CD8+ T cell viability” value (CD8+ T cells) was “not observed”. The “CD8+ T cell function as % cytotoxicity” value [8] was “no effect” and the “absolute lymphocyte count (ALC)” value (CLL) was “much smaller relative increase and much faster decrease in absolute lymphocyte count (ALC)”.
